Where a name gives a salt, the structure may show the parent alone. Read-outs that look alike come from different tables or passages of the source.
How the values were obtained:
[1] = cited from earlier work
[2] = cited from earlier work; remark: listed apart in the source
[3] = test system: isolated rat liver mitochondria
[4] = test system: isolated rat liver mitochondria; test: Mitochondrial ROS production (CM-H2DCFDA)
[5] = test system: isolated rat liver mitochondria; test: Mitochondrial swelling (absorbance at 535 nm); assay type: biochemical; details: difference in signal between KI and DMSO treated samples at the end of experiments; on Swelling 5XCmax: key: 0 indicates that the drug had no effects (negative)
RCC IV = RCC IV activity in submitochondrial particles; assay type: biochemical, rat; parameters: key to RCC IV at 50XCmax / RCC IV at 100XCmax: activity relative to DMSO-treated controls (control set as 1 = 100%); details: 50XCmax; relative to DMSO treated samples; in %
Experimental: (§1) KIs were incubated with submitochondrial particles (1 mg/ml) for 15 min and then RCC I–V activities measured. […] The activities of DMSO-treated samples (controls) were set as 1. […] The difference between the activity from rotenone-containing buffer and rotenone-absent buffer was considered as RCC I activity. […] For measuring RCC I/V and II activity, the changes in absorbance at 340 and 600 nm, respectively, were determined every 1 min for 6 min. For measuring RCC III and RCC IV, the changes in absorbance at 550 nm were measured every 10 s for 2 min.

RCC I = RCC I activity in submitochondrial particles; assay type: biochemical, rat; parameters: key to RCC I at 10XCmax / RCC I at 100XCmax / RCC I at 50XCmax / RCC I at 30XCmax / RCC I at 20XCmax: activity relative to DMSO-treated controls (control set as 1 = 100%); details: 10XCmax; relative to DMSO treated samples
Experimental: as §1

RCC III = RCC III activity in submitochondrial particles; assay type: biochemical, rat; parameters: key to RCC III at 100XCmax: activity relative to DMSO-treated controls (control set as 1 = 100%); details: 100XCmax; relative to DMSO treated samples
Experimental: as §1

RCC V = RCC V activity in submitochondrial particles; assay type: biochemical, rat; details: relative to DMSO treated samples; on RCC V at 5XCmax: key: 0 indicates that the drug had no effects (negative)
Experimental: as §1

RCC II = target: T1, RCC II (Rattus norvegicus, UniProt P21913+Q641Z9+Q6PCT8+Q920L2); test: RCC II activity in submitochondrial particles; assay type: biochemical; parameters: key: activity relative to DMSO-treated controls (control set as 1 = 100%); details: relative to DMSO treated samples
T1 construct: Submitochondrial particles were prepared by subjecting the intact mitochondria to three successive freeze–thaw cycles; from tissue; host or cells: rat liver mitochondria, used as submitochondrial particles
T1 sequence (Q920L2 35-656): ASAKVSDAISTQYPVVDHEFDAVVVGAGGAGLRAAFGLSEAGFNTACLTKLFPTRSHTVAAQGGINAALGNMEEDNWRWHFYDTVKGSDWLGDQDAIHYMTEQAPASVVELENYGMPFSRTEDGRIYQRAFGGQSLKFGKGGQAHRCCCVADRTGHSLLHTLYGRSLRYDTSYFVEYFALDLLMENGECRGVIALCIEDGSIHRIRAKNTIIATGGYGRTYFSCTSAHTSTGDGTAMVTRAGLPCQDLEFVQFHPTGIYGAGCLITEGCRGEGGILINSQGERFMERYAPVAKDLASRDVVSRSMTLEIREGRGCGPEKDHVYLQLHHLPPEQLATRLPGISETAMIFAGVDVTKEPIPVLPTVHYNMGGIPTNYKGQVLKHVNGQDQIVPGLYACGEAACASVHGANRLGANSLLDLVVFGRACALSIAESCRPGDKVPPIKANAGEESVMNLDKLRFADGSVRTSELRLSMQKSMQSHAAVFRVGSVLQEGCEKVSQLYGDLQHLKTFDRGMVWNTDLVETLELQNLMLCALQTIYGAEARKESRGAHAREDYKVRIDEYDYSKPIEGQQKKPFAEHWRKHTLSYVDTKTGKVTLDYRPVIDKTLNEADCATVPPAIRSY
T1 sequence (P21913 31-282): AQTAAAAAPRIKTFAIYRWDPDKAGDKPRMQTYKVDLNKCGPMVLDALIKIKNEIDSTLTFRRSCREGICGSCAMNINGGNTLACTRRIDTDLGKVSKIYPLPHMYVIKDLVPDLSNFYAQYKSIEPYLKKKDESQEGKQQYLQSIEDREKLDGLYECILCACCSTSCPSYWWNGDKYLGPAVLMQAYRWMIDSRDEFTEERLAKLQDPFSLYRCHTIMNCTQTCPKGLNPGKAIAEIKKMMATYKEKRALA
T1 sequence (Q641Z9 1-169): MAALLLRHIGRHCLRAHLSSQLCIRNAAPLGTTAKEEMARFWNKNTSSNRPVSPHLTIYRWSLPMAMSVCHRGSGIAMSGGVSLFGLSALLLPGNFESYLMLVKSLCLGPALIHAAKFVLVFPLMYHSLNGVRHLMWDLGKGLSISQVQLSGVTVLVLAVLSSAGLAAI
T1 sequence (Q6PCT8 57-159): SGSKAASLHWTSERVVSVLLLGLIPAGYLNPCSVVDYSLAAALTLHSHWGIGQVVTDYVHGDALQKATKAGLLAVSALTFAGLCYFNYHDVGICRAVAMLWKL
Experimental: as §1

[6] = test system: isolated rat liver mitochondria; test: Mitochondrial inner membrane potential (MMP), Rhodamine 123; assay type: biochemical; details: difference in signal between KI and DMSO treated samples at the end of experiments
Source text: Fig. 3 KI effects on mitochondrial inner membrane potential (MMP). […] In a, c, data are means and standard derivations from three separate experiments. *p < 0.05 as compared to DMSO-treated samples at the end of experiments. In b, data are means of two independent experiments

[7] = test system: isolated rat liver mitochondria; test: Mitochondrial oxygen consumption (glutamate/malate or succinate driven, state 4 and state 3); assay type: biochemical; details: DMSO treated samples set as 1; on State 3 respiration driven by succinate at 10XCmax: key: 0 indicates that the drug had no effects (negative); on State 3 respiration driven by succinate at 1XCmax: key: 0 indicates that the drug had no effects (negative)
Experimental: Rats were anesthetized by an intraperitoneal injection of Nembutal and the liver perfused with PBS to remove the blood. The liver was then cut into small pieces and homogenized using a Dounce type homogenizer in the ice-cold isolation buffer (IB) containing 200 mM sucrose, 10 mM Tris-MOPS, 1 mM EGTA (pH 7.4). The sample was then centrifuged at 600g for 10 min. The supernatant was further centrifuged at 7500g for 10 min, and the pellets was washed once with the IB and centrifuged again at 7500g for 10 min to collect mitochondria. […] Before drug treatment, the protein concentration was adjusted to 1 mg/ml using appropriate buffer. […] Briefly, mitochondrial and cytosolic fractions from four different preparations using four rats were diluted using the Laemmli protein loading buffer and subject to SDS-PAGE with 4–20% gradient gels. The proteins were blotted to PVDF membranes and detected using antibodies against GAPDH, ATP5A, UQCRC2, SDHB, and NDUFB8.
The aliquoted stock solutions were kept for less than one month and each tube was used only once. The KIs were added to the mitochondria at 1:1000 dilutions. […] The Cmax data were from clinical trials which used FDA recommend dosages, route of administration, and duration. […] The final concentration of DMSO for drug treatment was always 0.1%, and control treatments were 0.1% DMSO.
Briefly, mitochondria were incubated with the KIs for 5 min, and then split evenly and loaded to the sample tubes of two Oxytherm systems (Hansatech Instruments Ltd), with one system used for measuring glutamate/malate driven respiration and the other succinate-driven respiration, both of which were defined as state 4 respiration. After 3 min, ADP was added to measure the maximal oxygen consumption rate, which was defined as state 3 respiration. […] The oxygen consumption rate of DMSO-treated samples (controls) was set as 1.

[8] = human therapeutic Cmax at FDA recommended dosages, ref product labeling and drug approval packages at the official FDA website
[9] = read-out: Cmax at µM, therapeutic maximal blood concentration, ref product labeling
[10] = therapeutic maximal blood concentration, ref product labeling

SMILES: CN(C)C/C=C/C(=O)Nc1cc2c(Nc3ccc(F)c(Cl)c3)ncnc2cc1O[C@H]1CCOC1 [Afatinib]
- labeling for DILI ([1]; W&P warnings and precautions, BBW black box warnings, ref FDA product labeling): W&P: ALT↑/monitoring
- DILI potential (based on labeling) ([1]; ref FDA product labeling): 1
- Cmax [2, 8]: 0.04 µM

SMILES: C[C@@H]1CCN(C(=O)CC#N)C[C@@H]1N(C)c1ncnc2[nH]ccc12 [tofacitinib citrate]
- Cytochrome c release 1XCmax ([3]; 1XCmax, positive control alamethicin treated samples): 0
- Cytochrome c release 2.5XCmax ([3]; 2.5XCmax, positive control alamethicin treated samples): 0
- Cytochrome c release 5XCmax ([3]; 5XCmax, positive control alamethicin treated samples): 0
- Cytochrome c release 10XCmax ([3]; 10XCmax, positive control alamethicin treated samples): 0
- Cytochrome c release 20XCmax ([3]; 20XCmax, positive control alamethicin treated samples): 0
- Cytochrome c release 30XCmax ([3]; 30XCmax, positive control alamethicin treated samples): 0
- Cytochrome c release 50XCmax ([3]; 50XCmax, positive control alamethicin treated samples): 0
- Cytochrome c release 100XCmax ([3]; 100XCmax, positive control alamethicin treated samples): 7.22±1.11 percentage of the positive control group
- ROS measured by CM-H2DCFDA at 1XCmax ([4]; 1XCmax, DMSO treated samples set as 1): 0
- ROS measured by CM-H2DCFDA at 2.5XCmax ([4]; 2.5XCmax, DMSO treated samples set as 1): 0
- ROS measured by CM-H2DCFDA at 5XCmax ([4]; 5XCmax, DMSO treated samples set as 1): 0
- ROS measured by CM-H2DCFDA at 10XCmax ([4]; 10XCmax, DMSO treated samples set as 1): 0
- ROS measured by CM-H2DCFDA at 20XCmax ([4]; 20XCmax, DMSO treated samples set as 1): 0
- ROS measured by CM-H2DCFDA at 30XCmax ([4]; 30XCmax, DMSO treated samples set as 1): 0
- ROS measured by CM-H2DCFDA at 50XCmax ([4]; 50XCmax, DMSO treated samples set as 1): 0
- ROS measured by CM-H2DCFDA at 100XCmax ([4]; 100XCmax, DMSO treated samples set as 1): 0
- Swelling 1XCmax ([5]; 1XCmax): 0
- Swelling 2.5XCmax ([5]; 2.5XCmax): 0
- Swelling 5XCmax ([5]; 5XCmax): 0
- Swelling 10XCmax ([5]; 10XCmax): 0
- Swelling 20XCmax ([5]; 20XCmax): 0
- Swelling 30XCmax ([5]; 30XCmax): 0
- Swelling 50XCmax ([5]; 50XCmax): 0
- Swelling 100XCmax ([5]; 100XCmax): 0
- RCC IV at 50XCmax (RCC IV): 0
- RCC I at 10XCmax (RCC I): 0
- RCC III at 100XCmax (RCC III): 0
- RCC V at 5XCmax (RCC V; 5XCmax): 0
- RCC V at 50XCmax (RCC V; 50XCmax): 0
- RCC II at 1.0XCmax (RCC II; 1.0XCmax): 0
- RCC II at 2.5XCmax (RCC II; 2.5XCmax): 0
- RCC II at 5XCmax (RCC II; 5XCmax): 0
- RCC II at 10XCmax (RCC II; 10XCmax): 0
- RCC II at 20XCmax (RCC II; 20XCmax): 0
- RCC II at 30XCmax (RCC II; 30XCmax): 0
- RCC II at 50XCmax (RCC II; 50XCmax): 0
- RCC II at 100XCmax (RCC II; 100XCmax): 0
- MMP measured by Rhodamine 123 at 1XCmax ([6]; 1XCmax): 0
- MMP measured by Rhodamine 123 at 2.5XCmax ([6]; 2.5XCmax): 0
- MMP measured by Rhodamine 123 at 5XCmax ([6]; 5XCmax): 0
- MMP measured by Rhodamine 123 at 10XCmax ([6]; 10XCmax): 0
- MMP measured by Rhodamine 123 at 20XCmax ([6]; 20XCmax): 0
- MMP measured by Rhodamine 123 at 30XCmax ([6]; 30XCmax): 0
- MMP measured by Rhodamine 123 at 50XCmax ([6]; 50XCmax): 0
- MMP measured by Rhodamine 123 at 100XCmax ([6]; 100XCmax): 0
- State 3 respiration driven by succinate at 1XCmax ([7]; 1XCmax): 0
- State 4 respiration driven by succinate at 1XCmax ([7]; 1XCmax): 0
- State 3 respiration driven by succinate at 2.5XCmax ([7]; 2.5XCmax): 0
- State 4 respiration driven by succinate at 2.5XCmax ([7]; 2.5XCmax): 0
- State 3 respiration driven by succinate at 5XCmax ([7]; 5XCmax): 0
- State 4 respiration driven by succinate at 5XCmax ([7]; 5XCmax): 0
- State 3 respiration driven by succinate at 10XCmax ([7]; 10XCmax): 0
- State 4 respiration driven by succinate at 10XCmax ([7]; 10XCmax): 0
- State 3 respiration driven by succinate at 20XCmax ([7]; 20XCmax): 0
- State 4 respiration driven by succinate at 20XCmax ([7]; 20XCmax): 0
- State 3 respiration driven by succinate at 30XCmax ([7]; 30XCmax): 0
- State 4 respiration driven by succinate at 30XCmax ([7]; 30XCmax): 0
- State 3 respiration driven by succinate at 50XCmax ([7]; 50XCmax): 0
- State 4 respiration driven by succinate at 50XCmax ([7]; 50XCmax): 0
- State 3 respiration driven by succinate at 100XCmax ([7]; 100XCmax): 0
- State 4 respiration driven by succinate at 100XCmax ([7]; 100XCmax): 0
- Cmax [2, 9]: 0.089 µM
- Cmax [2, 10]: 45.1 ng/mL

SMILES: CC(=O)c1c(C)c2cnc(Nc3ccc(N4CCNCC4)cn3)nc2n(C2CCCC2)c1=O [Palbociclib]
- DILI potential (based on labeling) ([1]; ref FDA product labeling): 0
- Cmax [2, 8]: 0.24 µM

SMILES: Cc1ccc(NC(=O)c2ccc(CN3CCN(C)CC3)cc2)cc1Nc1nccc(-c2cccnc2)n1 [Imatinib]
- DILI potential (based on labeling) ([1]; in vivo): 1
- labeling for DILI ([1]; in vivo): W&P: fatal DILI

SMILES: CNS(=O)(=O)C[C@H]1CC[C@H](N(C)c2ncnc3[nH]ccc23)CC1 [oclacitinib]
- cytochrome c release from intact mitochondria [3]: significant cytochrome c release

SMILES: C[C@@H]1CCN(C(=O)CC#N)C[C@@H]1N(C)c1ncnc2[nH]ccc12 [Tofacitinib]
- lowest concentration causing cytochrome c release ([3]; rat, 30 min, pH 7.4): 100 fold Cmax
- Cmax [2, 8]: 0.09 µM

SMILES: [Ca+2].[Cl-].[Cl-] [calcium chloride]
- increase in ROS production ([4]; positive control, 100 µM CaCl2, DMSO-treated = 1): threefold

SMILES: Cc1ccc(NC(=O)c2ccc(CN3CCN(C)CC3)cc2)cc1Nc1nccc(-c2cccnc2)n1 [imatinib mesylate]
- Labeling for DILI ([1]; in vivo): W&P: fatal DILI
- Cmax [2, 9]: 2 µM
- Cmax [2, 10]: 986 ng/mL

SMILES: Cc1nc(Nc2ncc(C(=O)Nc3c(C)cccc3Cl)s2)cc(N2CCN(CCO)CC2)n1 [Dasatinib]
- DILI potential (based on labeling) ([1]; ref FDA product labeling): 0
- Cmax [2, 8]: 0.18 µM

From publication PMC5515969, “Effects of 31 FDA approved small-molecule kinase inhibitors on isolated rat liver mitochondria” (Archives of Toxicology, 2016)
